Laboratory results taken from article PMC3735939, “The low levels of eicosapentaenoic acid in rat brain phospholipids are maintained via multiple redundant mechanisms” (Journal of Lipid Research, 2013).
Where “and” joins values, the source holds several entries; their conditions need not be identical. Equal values may be shown once. Each block holds one compound with its values, some of them ahead of it.

Tests used:
[1] = tested on: mitochondrial FA β-oxidation; experiment: Radioactivity in brain aqueous fraction (marker of β-oxidation) after 5 min intravenous 14C-tracer infusion; type: in vivo, rat; settings: vehicle injection; 5 min iv infusion of tracer
Experimental: (§1) Twenty-four hours postsurgery, a second catheter (iv catheter 24 gauge/0.75 inch, Angiocath™; Becton Dickinson) was implanted into the tail vein where rats received either vehicle or 10 mg/kg of MEP. Ten minutes post injection of vehicle or MEP, the tail vein catheter was connected to a syringe containing radiolabeled ^14C-palmitate (n = 8), ^14C-DHA (n = 6), or ^14C-EPA (n = 7) attached to a computer-controlled variable speed pump (PHD 22/2000; Harvard Apparatus, Holliston, MA). […] Each rat received a dose of 76 μCi ^14C-palmitate, 76 μCi ^14C-DHA, or 78 μCi ^14C-EPA. […] The radiotracer infusions continued until rats were euthanized. The brain was excised and cut sagittally. Both hemispheres were stored at −80°C for radioactive and biochemical analyses. Plasma was isolated from whole blood via microcentrifugation at 6,200 rpm (2,000 g) for 5 min and stored at −80°C. Total lipids from one brain hemisphere and from plasma were extracted by the method of Folch, Lees, and Sloane Stanley ([39]). Isolation of various neutral lipid and phospholipid classes from the total lipid extract was previously described by Chen, Liu, and Bazinet ([6]).

[2] = In vivo kinetics of FA incorporation and turnover in brain phospholipids (intravenous radiotracer infusion, kinetic model); design: species or system rat
Experimental: Twenty-four hours postsurgery, a second catheter (iv catheter 24 gauge/0.75 inch, Angiocath™; Becton Dickinson) was implanted into the tail vein where rats received either vehicle or 10 mg/kg of MEP. […] The radiotracers were infused for 5 min via the tail vein catheter at a rate of 0.223(1 + e^−19.2t) ml/min (t is infusion time in minutes) ([37]) which achieves a steady-state plasma radioactivity within 1 min ([18], [38]). […] During the 5 min infusion, blood samples were collected from the jugular vein at approximately 0, 0.25, 0.5, 0.75, 1.5, 3, 4, and 5 min while the unanesthetized rat was mobile in the infusion box with food and water. […] After 5 min, the rats were rapidly euthanized by head-focused high-energy microwave irradiation (13.5 kW for 1.6 s; Cober Electronics Inc., Stratford, CT). The radiotracer infusions continued until rats were euthanized. The brain was excised and cut sagittally. Both hemispheres were stored at −80°C for radioactive and biochemical analyses. Plasma was isolated from whole blood via microcentrifugation at 6,200 rpm (2,000 g) for 5 min and stored at −80°C.
The model for in vivo kinetics of brain FAs in rats has been previously described ([17], [18], [21], [23], [25], [37], [41]).
Because the infusion is 5 min, contributions of FA from de novo synthesis and esterified plasma FA are negligible ([18], [20], [23], [41]); thus only contributions from plasma unesterified FAs and acyl-CoA pools were considered in the calculation of λpalmitate, DHA, or EPA .

[3] = cited from earlier work
[4] = Radioactivity in brain lipid fractions after 5 min intravenous 14C-tracer infusion (TLC, LSC); type: in vivo, rat; settings: not adjusted for percent composition of 14C-EPA
Experimental: as §1, with “([6]). FA methyl esters and radioactive acyl-CoA analysis were previously described by Chen, Liu, and Bazinet ([6]).” for “([6]).”

[5] = Identification of radiolabeled FAs in brain phospholipids by HPLC and LSC after 14C-EPA infusion; type: in vivo, rat; settings: for percent of total radiolabeled FAs: brain total phospholipids;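 as to radiolabeled FA composition: percent of radiolabeled FAs within each phospholipid class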
Experimental: as §1, with “([6]). FA methyl esters and radioactive acyl-CoA analysis were previously described by Chen, Liu, and Bazinet ([6]).” for “([6]).”

[6] = cited from earlier work; remark: listed apart in the source

radioactivity of brain aqueous fraction [1]: 21 nCi/g brain
FFA rate of turnover ([2]; ChoGpl, MEP): 28 ± 4.5 %/day
JFA net incorporation rate from brain acyl-CoA ([2]; ChoGpl, MEP): 16 ± 2.3 nmol/g/day
Jin net incorporation rate from plasma unesterified FA ([2]; ChoGpl, MEP): 3.7 ± 0.31^! nmol/g/day
FFA rate of turnover ([2]; ChoGpl, Vehicle): 46 ± 6.9 %/day
JFA net incorporation rate from brain acyl-CoA ([2]; ChoGpl, Vehicle): 23 ± 3.3 nmol/g/day
Jin net incorporation rate from plasma unesterified FA ([2]; ChoGpl, Vehicle): 2.8 ± 0.55 nmol/g/day
FFA rate of turnover ([2]; EtnGpl, MEP): 9.5 ± 3.3 %/day
JFA net incorporation rate from brain acyl-CoA ([2]; EtnGpl, MEP): 5.4 ± 1.4 nmol/g/day
Jin net incorporation rate from plasma unesterified FA ([2]; EtnGpl, MEP): 1.2 ± 0.17 nmol/g/day
FFA rate of turnover ([2]; EtnGpl, Vehicle): 8.4 ± 0.81 %/day
JFA net incorporation rate from brain acyl-CoA ([2]; EtnGpl, Vehicle): 6.4 ± 1.3 nmol/g/day
Jin net incorporation rate from plasma unesterified FA ([2]; EtnGpl, Vehicle): 0.78 ± 0.19 nmol/g/day
λ dilution factor ([2]; MEP): 0.24 ± 0.022
FFA rate of turnover ([2]; PtdIns, MEP): 17 ± 6.6 %/day
JFA net incorporation rate from brain acyl-CoA ([2]; PtdIns, MEP): 3.0 ± 1.4 nmol/g/day
Jin net incorporation rate from plasma unesterified FA ([2]; PtdIns, MEP): 0.73 ± 0.41 nmol/g/day
FFA rate of turnover ([2]; PtdIns, Vehicle): 24 ± 1.7 %/day
JFA net incorporation rate from brain acyl-CoA ([2]; PtdIns, Vehicle): 4.5 ± 0.2 nmol/g/day
Jin net incorporation rate from plasma unesterified FA ([2]; PtdIns, Vehicle): 0.52 ± 0.087 nmol/g/day
FFA rate of turnover ([2]; PtdSer, MEP): 3.1 ± 0.43 %/day
JFA net incorporation rate from brain acyl-CoA ([2]; PtdSer, MEP): 1.2 ± 0.13 nmol/g/day
Jin net incorporation rate from plasma unesterified FA ([2]; PtdSer, MEP): 0.29 ± 0.057 nmol/g/day
FFA rate of turnover ([2]; PtdSer, Vehicle): 3.1 ± 0.56 %/day
JFA net incorporation rate from brain acyl-CoA ([2]; PtdSer, Vehicle): 1.4 ± 0.36 nmol/g/day
Jin net incorporation rate from plasma unesterified FA ([2]; PtdSer, Vehicle): 0.17 ± 0.055 nmol/g/day
FFA rate of turnover ([2]; Total PL, MEP): 17 ± 2.3 %/day
JFA net incorporation rate from brain acyl-CoA ([2]; Total PL, MEP): 31 ± 4.8 nmol/g/day
Jin net incorporation rate from plasma unesterified FA ([2]; Total PL, MEP): 7.3 ± 0.7^! nmol/g/day
FFA rate of turnover ([2]; Total PL, Vehicle): 21 %/day and 21 ± 2.9 %/day
JFA net incorporation rate from brain acyl-CoA ([2]; Total PL, Vehicle): 47 ± 5.7 nmol/g/day
Jin net incorporation rate from plasma unesterified FA ([2]; Total PL, Vehicle): 5.7 nmol/g/day and 5.7 ± 1.1 nmol/g/day
Jin as percent of the Jout ([2]; rat, in vivo): 36%
recycling into brain phospholipids, fold lower than DHA ([2]; rat, in vivo): 154 fold
λ dilution factor ([2]; vehicle): 0.12 ± 0.014 and 0.12 ± 0.01
total radioactivity in brain total phospholipids ([4]; MEP): 22 ± 0.6 nCi/g brain
total radioactivity in brain total phospholipids ([4]; vehicle): 17 ± 0.9 nCi/g brain
radiolabeled FA composition ([5]; ChoGpl, MEP-treated rats): 66%
radiolabeled FA composition ([5]; ChoGpl, vehicle-treated rats): 65%
radiolabeled FA composition ([5]; EtnGpl, MEP-treated rats): 25%
radiolabeled FA composition ([5]; EtnGpl, vehicle-treated rats): 24%
radiolabeled FA composition ([5]; PtdIns, MEP-treated rats): 65%
radiolabeled FA composition ([5]; PtdIns, vehicle-treated rats): 66%
radiolabeled FA composition ([5]; PtdSer, MEP-treated rats): 54%
radiolabeled FA composition ([5]; PtdSer, vehicle-treated rats): 44%
percent of total radiolabeled FAs ([5]; MEP-treated rats): 56%
percent of total radiolabeled FAs ([5]; vehicle-treated rats): 62%
Compound: CC/C=C\C/C=C\C/C=C\C/C=C\C/C=C\CCCC(=O)O [EPA, eicosapentaenoic acid]
Jout net rate of loss from brain phospholipids [3]: 16 nmol/g/day
loss t1/2 from brain phospholipids [3]: 5 days
rate of loss from brain phospholipids [3]: 14 % per day

radioactivity of brain aqueous fraction [1]: 17 nCi/g brain
FFA rate of turnover ([2]; ChoGpl, MEP): 90 ± 20 %/day
JFA net incorporation rate from brain acyl-CoA ([2]; ChoGpl, MEP): 1,234 ± 344 nmol/g/day
Jin net incorporation rate from plasma unesterified FA ([2]; ChoGpl, MEP): 4.3 ± 0.38 nmol/g/day
FFA rate of turnover ([2]; ChoGpl, Vehicle): 150 ± 14 %/day
JFA net incorporation rate from brain acyl-CoA ([2]; ChoGpl, Vehicle): 2,146 ± 225 nmol/g/day
Jin net incorporation rate from plasma unesterified FA ([2]; ChoGpl, Vehicle): 5.2 ± 0.62 nmol/g/day
FFA rate of turnover ([2]; EtnGpl, MEP): 37 ± 9.6 %/day
JFA net incorporation rate from brain acyl-CoA ([2]; EtnGpl, MEP): 2,030 ± 492 nmol/g/day
Jin net incorporation rate from plasma unesterified FA ([2]; EtnGpl, MEP): 7.2 ± 1.2 nmol/g/day
FFA rate of turnover ([2]; EtnGpl, Vehicle): 55 ± 5.4 %/day
JFA net incorporation rate from brain acyl-CoA ([2]; EtnGpl, Vehicle): 3,233 ± 184 nmol/g/day
Jin net incorporation rate from plasma unesterified FA ([2]; EtnGpl, Vehicle): 7.9 ± 1.4 nmol/g/day
FFA rate of turnover ([2]; PtdIns, MEP): 308 ± 105 %/day
JFA net incorporation rate from brain acyl-CoA ([2]; PtdIns, MEP): 477 ± 106 nmol/g/day
Jin net incorporation rate from plasma unesterified FA ([2]; PtdIns, MEP): 1.7 ± 0.3 nmol/g/day
FFA rate of turnover ([2]; PtdIns, Vehicle): 458 ± 156 %/day
JFA net incorporation rate from brain acyl-CoA ([2]; PtdIns, Vehicle): 688 ± 144 nmol/g/day
Jin net incorporation rate from plasma unesterified FA ([2]; PtdIns, Vehicle): 1.8 ± 0.078 nmol/g/day
FFA rate of turnover ([2]; PtdSer, MEP): 8.4 ± 3.1 %/day
JFA net incorporation rate from brain acyl-CoA ([2]; PtdSer, MEP): 198 ± 79 nmol/g/day
Jin net incorporation rate from plasma unesterified FA ([2]; PtdSer, MEP): 0.68 ± 0.11 nmol/g/day
FFA rate of turnover ([2]; PtdSer, Vehicle): 9.2 ± 2.1 %/day
JFA net incorporation rate from brain acyl-CoA ([2]; PtdSer, Vehicle): 237 ± 50 nmol/g/day
Jin net incorporation rate from plasma unesterified FA ([2]; PtdSer, Vehicle): 0.56 ± 0.053 nmol/g/day
FFA rate of turnover ([2]; Total PL, MEP): 51 ± 10 %/day
JFA net incorporation rate from brain acyl-CoA ([2]; Total PL, MEP): 4,390 ± 988 nmol/g/day
Jin net incorporation rate from plasma unesterified FA ([2]; Total PL, MEP): 16 ± 1.2 nmol/g/day
FFA rate of turnover ([2]; Total PL, Vehicle): 75 %/day and 75 ± 7.7 %/day
JFA net incorporation rate from brain acyl-CoA ([2]; Total PL, Vehicle): 7,259 ± 958 nmol/g/day
Jin net incorporation rate from plasma unesterified FA ([2]; Total PL, Vehicle): 17 nmol/g/day and 17 ± 1.8 nmol/g/day
Jin, percent lower than reported Jin ([2]; rat, in vivo): 89–91%
fold difference in λ between DHA and EPA ([2]; rat, in vivo): 50 fold
λ dilution factor ([2]; vehicle): 0.0024 ± 0.0003
FFA into brain total phospholipids, fold higher than EPA ([2]; vehicle injection): 4 fold
Jin into brain total phospholipids, fold higher than EPA ([2]; vehicle injection): 3 fold
t1/2, fold lower than EPA ([2]; vehicle injection): 4 fold
radiolabeled FA composition ([5]; ChoGpl, MEP-treated rats): 4%
radiolabeled FA composition ([5]; ChoGpl, vehicle-treated rats): 11%
radiolabeled FA composition ([5]; EtnGpl, MEP-treated rats): 14%
radiolabeled FA composition ([5]; EtnGpl, vehicle-treated rats): 29%
percent of total radiolabeled FAs ([5]; MEP-treated rats): 3%
percent of total radiolabeled FAs ([5]; vehicle-treated rats): 10%
Compound: CC/C=C\C/C=C\C/C=C\C/C=C\C/C=C\C/C=C\CCC(=O)O [DHA, docosahexaenoic acid]
Jin, reported [6]: 150 to 190 nmol/g/day
Jout net rate of loss from brain phospholipids [3]: 58 to 257 nmol/g/day
loss t1/2 from brain phospholipids [3]: 33 days
rate of loss from brain phospholipids [3]: 2 % per day
